Experimental data: patent publication US20260285853A1, “COMPOUNDS AND METHODS FOR MODULATING SPLICING” (REMIX THERAPEUTICS INC., priority 2023, published 2026)
Like-named read-outs stand apart in the source and are kept apart here.

Experiments:
Format in all cases: cell-based
[1] = system: SH-SY5Y (human neuroblastoma) cells; assay: Cell viability, Cell Titer Glo 2.0 assay; conditions: read-out: Viability SHSY5Y.3 GI50
Summary of the method: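 Steps: serial DMSO dilution of compound, 1:100 dilution into medium, addition to cells (0.1% DMSO final). Incubate 72 h at 37 °C, 5% CO2. Assay with CellTiter-Glo 2.0 reagent.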

MYB mRNA [2] = assay: Splicing RT-qPCR assay (THP), Table 2A
HTT mRNA [3] = assay: Gene panel canonical junction qPCR assay, decrease in CJ mRNA, Table 3
Summary of the method: (§1)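 IC50 is the concentration giving 50% response in decrease of the canonical junction transcript, fitted with a 4-parameter logistic equation. Transcripts were quantified by RT-qPCR in A673 or K562 cells after 24 h exposure to compounds dosed up to 10 uM in 3-fold steps.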

MYB mRNA [4] = assay: as above
Summary of the method: as §1

HTT mRNA [5] = assay: Splicing RT-qPCR assay (THP), Table 2A
[6] = Table 2A, THP, MYB alternative junction (AJ) mRNA, read-out: MYB AJ (AC50, increase in alternative junction mRNA)
[7] = Table 2A, THP, MYB canonical junction (CJ) mRNA, read-out: MYB CJ (IC50, decrease in canonical junction mRNA)
[8] = decrease in CJ mRNA levels, canonical junction qPCR, gene panel
[9] = Table 2A, THP, HTT alternative junction (AJ) mRNA, read-out: HTT AJ (AC50, increase in alternative junction mRNA)
[10] = Table 2A, THP, HTT canonical junction (CJ) mRNA, read-out: HTT CJ (IC50, decrease in canonical junction mRNA)
[11] = Table 2A (THP), AJ mRNA increase, read-out: MYB AJ (increase in alternative junction mRNA, AC50)
[12] = Table 2A (THP), CJ mRNA decrease, read-out: MYB CJ (decrease in canonical junction mRNA, IC50)
[13] = decrease in canonical junction (CJ) mRNA, gene panel qPCR, Table 3
[14] = Table 2A (THP), AJ mRNA increase, read-out: HTT AJ (increase in alternative junction mRNA, AC50)
[15] = Table 2A (THP), CJ mRNA decrease, read-out: HTT CJ (decrease in canonical junction mRNA, IC50)

GI50 [1] [µM] | IC50 (MYB mRNA [2]; [7]) [µM] | IC50 (HTT mRNA [3]; [8]) [µM] | IC50 (MYB mRNA [4]; [8]) [µM] | IC50 (HTT mRNA [5]; [10]) [µM] | IC50 (MYB mRNA [2]; [12]) [µM] | IC50 (HTT mRNA [3]; [13]) [µM] | IC50 (MYB mRNA [4]; [13]) [µM] | IC50 (HTT mRNA [5]; [15]) [µM] | SMILES | AC50 (MYB mRNA [2]; [6]) [µM] | AC50 (HTT mRNA [5]; [9]) [µM] | AC50 (MYB mRNA [2]; [11]) [µM] | AC50 (HTT mRNA [5]; [14]) [µM]
1 to 10 | 1 to 10 | > 10 | 1 to 10 | > 10 | – | – | – | – | Cn1cc2cc(NC(=O)c3ccc(N4CCC(NC5CC5)CC4)c4cn(C)nc34)cc(Cn3ccnn3)c2n1 [Compound 823] | 0.1 to 1 | > 10 | – | –
1 to 10 | – | – | – | – | > 10 | > 10 | > 10 | > 10 | Cc1cn2cc(NC(=O)c3ccc(N4CC5(CNCCO5)C4)c4cn(C)nc34)nc2c(C)n1 [Compound 497] | – | – | > 10 | > 10
0.1 to 1 | < 0.1 | 0.1 to 1 | < 0.1 | 0.1 to 1 | – | – | – | – | CNC1CN(c2ccc(C(=O)Nc3cc(F)c4nn(C)cc4c3)c3nc(OC)sc23)C1 [Compound 749, N-(7-fluoro-2-methyl-indazol-5-yl)-2-methoxy-7-[3-(methylamino)azetidin-1-yl]-1,3-benzothiazole-4-carboxamide] | 0.1 to 1 | 0.1 to 1 | – | –
1 to 10 | – | – | – | – | 0.1 to 1 | 1 to 10 | 0.1 to 1 | 1 to 10 | CCNC1CCN(c2ccc(C(=O)Nc3cc(Oc4cccc(C#N)c4)c4nc(C)cn4c3)c3nn(C)cc23)CC1 [Compound 326, N-[8-(3-cyano-phenoxy)-2-methylimidazo[1,2-a]pyridin-6-yl]-4-[4-(ethylamino)-1-piperidyl]-2-methyl-indazole-7-carboxamide] | – | – | 0.1 to 1 | 1 to 10
> 10 | 0.1 to 1 | > 10 | 0.1 to 1 | > 10 | – | – | – | – | COc1cc2c(N3CCC(NC4CC4)CC3)ccc(C(=O)Nc3cn4cc(C)nc(C)c4n3)n2n1 [Compound 633, 4-[4-(cyclopropyl-amino)-1-piperidyl]-N-(6,8-dimethyl-imidazo[1,2-a]pyrazin-2-yl)-2-methoxypyrazolo [1,5-a]-pyridine-7-carboxamide] | 0.1 to 1 | > 10 | – | –
0.1 to 1 | – | – | – | – | < 0.1 | 0.1 to 1 | < 0.1 | 0.1 to 1 | COc1nc2nn(C)cc2cc1NC(=O)c1c(F)cc(N2CCC(NC3CC3)CC2)c2cn(C)nc12 [Compound 431, 4-[4-(cyclopropylamino)-1-piperidyl]-6-fluoro-N-(6-methoxy-2-methyl-pyrazolo-[3,4-b]pyridin-5-yl)-2-methyl-indazole-7-carboxamide] | – | – | < 0.1 | 0.1 to 1
> 10 | > 10 | > 10 | > 10 | > 10 | – | – | – | – | CCNC1CCN(c2ccc(C(=O)Nc3cc(CCC(=O)N(C)C)c4nn(C)cc4c3)c3nn(C)cc23)CC1 [Compound 877] | > 10 | > 10 | – | –
> 10 | > 10 | > 10 | > 10 | > 10 | – | – | – | – | CNCC1CN(c2ccc(C(=O)Nc3cn4cc(C)nc(CNS(C)(=O)=O)c4n3)c3nn(C)cc23)C1 [Compound 863] | > 10 | > 10 | – | –
< 0.1 | – | – | – | – | < 0.1 | 0.1 to 1 | < 0.1 | 0.1 to 1 | COc1c(NC(=O)c2c(F)cc(N3CCC(NC4CC4)CC3)c3cn(C)nc23)cc2cn(C)nc2c1F [Compound 405, 4-[4-(cyclopropylamino)-1-piperidyl]-6-fluoro-N-(7-fluoro-6-methoxy-2-methyl-indazol-5-yl)-2-methyl-indazole-7-carboxamide] | – | – | < 0.1 | 0.1 to 1
1 to 10 | 0.1 to 1 | > 10 | 0.1 to 1 | > 10 | – | – | – | – | COc1nc2c(C(=O)Nc3cc(CNS(C)(=O)=O)c4nn(C)cc4c3)ccc(N3C[C@H](C)N[C@@H](C)C3)c2s1 [Compound 731, 7-((3S,5S)-3,5-dimethylpiperazin-1-yl)-2-methoxy-N-(2-methyl-7-(methylsulfonamidomethyl)-2H-indazol-5-yl)benzo[d]thiazole-4-carboxamide 2,2,2-trifluoroacetate] | 0.1 to 1 | > 10 | – | –
1 to 10 | 0.1 to 1 | 1 to 10 | 0.1 to 1 | 1 to 10 | – | – | – | – | CCNC1CCN(c2ccc(C(=O)Nc3cn4cc(C)nc(C)c4n3)n3nc(C)cc23)CC1 [Compound 615, N-(6,8-dimethylimidazo[1,2-a]-pyrazin-2-y1)-4-[4-(ethylamino)-1-piperidyl]-2-methyl-pyrazolo[1,5-a]-pyridine-7-carboxamide] | 1 to 10 | 1 to 10 | – | –
1 to 10 | – | – | – | – | 0.1 to 1 | > 10 | 0.1 to 1 | > 10 | CCNC1CCN(c2ccc(C(=O)Nc3cc(CO)c4nc(C)cn4c3)c3nn(C)cc23)CC1 [Compound 329, 4-[4-(ethylamino)-1-piperidyl]-N-[8-(hydroxymethyl)-2-methyl-imidazo[1,2-a]pyridin-6-yl]-2-methyl-indazole-7-carboxamide] | – | – | 0.1 to 1 | 1 to 10
> 10 | 1 to 10 | > 10 | 1 to 10 | > 10 | – | – | – | – | CCNC1CCN(c2ccc(C(=O)Nc3cc(CNS(C)(=O)=O)c4nc(C)cn4c3)c3nn(C)cc23)CC1 [Compound 817, 4-[4-(ethylamino)-1-piperidyl]-N-[8-(methanesulfonamidomethyl)-2-methyl-imidazo[1,2-a]pyridin-6-yl]-2-methyl-indazole-7-carboxamide] | 1 to 10 | > 10 | – | –
0.1 to 1 | < 0.1 | 1 to 10 | < 0.1 | 1 to 10 | – | – | – | – | CN[C@H]1CCN(c2ccc(C(=O)Nc3cc(F)c4nn(C)cc4c3)c3nc(OC)sc23)C1 [Compound 748, N-(7-fluoro-2-methyl-indazol-5-yl)-2-methoxy-7-[(3S)-3-(methylamino)pyrrolidin-1-yl]-1,3-benzothiazole-4-carboxamide] | < 0.1 | 0.1 to 1 | – | –
1 to 10 | – | – | – | – | > 10 | > 10 | > 10 | > 10 | COc1cc2nn(C)cc2cc1C#Cc1ccc(N2CCC(NC3CC3)CC2)c2cn(C)nc12 [Compound 437, N-cyclopropyl-1-[7-[2-(6-methoxy-2-methyl-indazol-5-yl)ethynyl]-2-methyl-indazol-4-yl]-piperidin-4-amine] | – | – | > 10 | > 10
< 0.1 | – | – | – | – | < 0.1 | 0.1 to 1 | < 0.1 | 0.1 to 1 | COc1cc2nn(C)cc2cc1NC(=O)c1c(F)cc(N2CCC(NC3CC3)CC2)c2cn(C)nc12 [Compound 396, 4-[4-(cyclopropylamino)-1-piperidyl]-6-fluoro-N-(6-methoxy-2-methyl-indazol-5-yl)-2-methyl-indazole-7-carboxamide] | – | – | < 0.1 | 0.1 to 1
1 to 10 | – | – | – | – | 0.1 to 1 | 1 to 10 | 0.1 to 1 | 1 to 10 | COc1cc2nn(C)cc2cc1NC(=O)c1ccc(N2C[C@H](C)N[C@@H](C)C2)c2cn(C)nc12 [Compound 553] | – | – | < 0.1 | 1 to 10
1 to 10 | < 0.1 | 0.1 to 1 | < 0.1 | 0.1 to 1 | – | – | – | – | CC(=O)Nc1nc2c(C(=O)Nc3cc(F)c4nn(C)cc4c3)ccc(N3C[C@H](C)N[C@@H](C)C3)c2s1 [Compound 724, 2-acetamido-7-[(3S,5S)-3,5-dimethylpiperazin-1-yl]-N-(7-fluoro-2-methyl-indazol-5-yl)-1,3-benzothiazole-4-carboxamide] | < 0.1 | 1 to 10 | – | –
< 0.1 | < 0.1 | > 10 | < 0.1 | > 10 | – | – | – | – | COc1nc2c(C(=O)Nc3cc(F)c4nn(C)cc4c3)ccc(N3C[C@H](C)NC4(CC4)C3)c2s1 [Compound 741] | < 0.1 | 1 to 10 | – | –
> 10 | 1 to 10 | > 10 | 1 to 10 | > 10 | – | – | – | – | CCNC1(C)CCN(c2ccc(C(=O)Nc3cn4cc(C)nc(CNS(C)(=O)=O)c4n3)c3nn(C)cc23)CC1 [Compound 864] | 1 to 10 | > 10 | – | –

SMILES | GI50 [1] [µM] | IC50 (MYB mRNA [2]; [7]) [µM] | IC50 (HTT mRNA [3]; [8]) [µM] | IC50 (MYB mRNA [4]; [8]) [µM] | IC50 (HTT mRNA [5]; [10]) [µM] | IC50 (MYB mRNA [2]; [12]) [µM] | IC50 (HTT mRNA [3]; [13]) [µM] | IC50 (MYB mRNA [4]; [13]) [µM] | IC50 (HTT mRNA [5]; [15]) [µM] | AC50 (MYB mRNA [2]; [6]) [µM] | AC50 (HTT mRNA [5]; [9]) [µM] | AC50 (MYB mRNA [2]; [11]) [µM] | AC50 (HTT mRNA [5]; [14]) [µM]
COc1cc2nn(C)cc2cc1NC(=O)c1ccc(N(C)C2CCNCC2)c2cn(C)nc12 [Compound 548] | 1 to 10 | – | – | – | – | 0.1 to 1 | > 10 | 0.1 to 1 | > 10 | – | – | 0.1 to 1 | > 10
